Data: patent publication US9382228B2 (priority 2013, dated 2016)

What was measured:
M-NFS-60 cells = test: cells; conditions: 67 h, read-out: M-NFS-60 cell proliferation
Experimental: M-NFS-6 Cell Proliferation Assay
A serial dilution of test compound was dispensed into a 384-well black clear bottom plate (Corning, Corning, N.Y.). Two thousand five hundred cells were added per well in 50 μL complete growth medium. […] IC50 values were calculated from a series of percent inhibition values determined at a range of inhibitor concentrations using software routines as implemented in the GraphPad Prism software package.

[1] = system: phospho-FMS in THP-1 cells; test: cells; conditions: Homo sapiens, THP-1, read-out: pFMS inhibition in THP-1 cells
Experimental: In a separate 96 well black clear bottom plate, one hundred and fifty thousand THP-1 cells were added per well in 100 μL in assay medium. Fifty microliters of diluted compound was then added to the cells. […] Lysates were prepared and used to perform the phospho-FMS ELISA as described by the manufacturer (catalog #DYC3268, R & D Systems, Minneapolis, Minn.). GraphPad Prism was used to calculate IC50 values obtained from data generated from the ELISA assay.

[2] = target: unphosphorylated PDGFRβ kinase (uPDGFRβ, Seq. ID No. 3) (Homo sapiens, UniProt P09619); test: biochemical
[3] = target: T1, unphosphorylated c-FMS kinase (uFMS, Seq. ID no. 1) (Homo sapiens, UniProt P07333); test: biochemical
T1 sequence (P07333 538-972): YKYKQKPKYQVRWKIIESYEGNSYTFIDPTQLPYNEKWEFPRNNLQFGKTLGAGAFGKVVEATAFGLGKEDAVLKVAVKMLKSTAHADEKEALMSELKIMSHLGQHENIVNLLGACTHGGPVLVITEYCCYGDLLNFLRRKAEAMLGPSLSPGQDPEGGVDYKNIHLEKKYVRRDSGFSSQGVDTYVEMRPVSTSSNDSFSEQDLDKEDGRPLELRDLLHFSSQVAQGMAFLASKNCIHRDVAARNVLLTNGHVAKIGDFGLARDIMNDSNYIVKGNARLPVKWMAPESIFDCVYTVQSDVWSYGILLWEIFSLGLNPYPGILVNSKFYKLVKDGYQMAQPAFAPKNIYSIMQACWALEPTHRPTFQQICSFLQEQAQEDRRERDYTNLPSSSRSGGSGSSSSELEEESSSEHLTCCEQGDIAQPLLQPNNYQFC
Experimental: In this assay, the oxidation of NADH (thus the decrease at A340 nm) was continuously monitored spectrophometrically. The reaction mixture (100 μL) contained FMS (purchased from Millipore) (10 nM), polyE4Y (1 mg/mL), MgCl2 (10 mM), pyruvate kinase (4 units), lactate dehydrogenase (0.7 units), phosphoenol pyruvate (1 mM), NADH (0.28 mM) and ATP (500 μM) in 90 mM Tris buffer containing 0.2% octyl-glucoside and 1% DMSO, pH 7.5. The inhibition reaction was started by mixing serial diluted test compound with the above reaction mixture. The absorption at 340 nm was monitored continuously for 4 hours at 30° C. on Synergy 2 plate reader. The reaction rate was calculated using the 3 to 4 h time frame. Percent inhibition was obtained by comparison of reaction rate with that of a control (i.e. in the absence of test compound). IC50 values were calculated from a series of percent inhibition values determined at a range of inhibitor concentrations using software routines as implemented in the GraphPad Prism software package.

osteoclast precursors = test: cells; type: cell-based; conditions: read-out: Osteoclast assay
[4] = target: unphosphorylated c-KIT kinase (uKIT, Seq. ID no. 2) (Homo sapiens, UniProt P10721); test: biochemical
Chain of unphosphorylated c-KIT kinase (uKIT, Seq. ID no. 2) (P10721 with tags, fused parts or gaps): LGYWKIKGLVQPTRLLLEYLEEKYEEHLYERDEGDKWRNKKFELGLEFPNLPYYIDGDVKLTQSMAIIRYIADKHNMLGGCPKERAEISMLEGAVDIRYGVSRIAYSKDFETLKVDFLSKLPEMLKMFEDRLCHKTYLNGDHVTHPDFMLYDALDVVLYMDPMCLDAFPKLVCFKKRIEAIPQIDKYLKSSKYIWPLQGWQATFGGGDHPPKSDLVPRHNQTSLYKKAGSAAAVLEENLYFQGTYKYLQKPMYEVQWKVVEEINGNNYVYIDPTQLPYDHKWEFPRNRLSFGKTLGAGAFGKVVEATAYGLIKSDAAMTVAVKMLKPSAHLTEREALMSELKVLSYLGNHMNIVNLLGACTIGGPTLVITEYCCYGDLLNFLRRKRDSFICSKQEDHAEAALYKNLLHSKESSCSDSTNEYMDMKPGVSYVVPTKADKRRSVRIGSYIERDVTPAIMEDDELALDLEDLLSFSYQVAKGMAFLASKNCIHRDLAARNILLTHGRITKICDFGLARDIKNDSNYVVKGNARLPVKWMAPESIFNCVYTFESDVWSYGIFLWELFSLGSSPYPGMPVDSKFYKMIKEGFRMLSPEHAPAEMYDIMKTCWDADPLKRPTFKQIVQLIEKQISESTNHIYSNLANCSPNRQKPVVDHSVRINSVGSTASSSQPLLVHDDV
Experimental: uKit kinase (Seq. ID No. 2) Assay
In this assay, the oxidation of NADH (thus the decrease at A340 nm) was continuously monitored spectrophometrically. […] The inhibition reaction was started by mixing serial diluted test compound with the above reaction mixture. The absorption at 340 nm was monitored continuously for 4 hours at 30° C. on Synergy 2 plate reader (BioTech).

[5] = uPDGFRb, enzymatic assay, ATP 500 μM
[6] = uFMS, enzymatic assay, ATP 500 μM
[7] = uKIT, enzymatic assay, ATP 2000 μM

Chain of unphosphorylated PDGFRβ kinase (uPDGFRβ, Seq. ID No. 3) (P09619 557-1106): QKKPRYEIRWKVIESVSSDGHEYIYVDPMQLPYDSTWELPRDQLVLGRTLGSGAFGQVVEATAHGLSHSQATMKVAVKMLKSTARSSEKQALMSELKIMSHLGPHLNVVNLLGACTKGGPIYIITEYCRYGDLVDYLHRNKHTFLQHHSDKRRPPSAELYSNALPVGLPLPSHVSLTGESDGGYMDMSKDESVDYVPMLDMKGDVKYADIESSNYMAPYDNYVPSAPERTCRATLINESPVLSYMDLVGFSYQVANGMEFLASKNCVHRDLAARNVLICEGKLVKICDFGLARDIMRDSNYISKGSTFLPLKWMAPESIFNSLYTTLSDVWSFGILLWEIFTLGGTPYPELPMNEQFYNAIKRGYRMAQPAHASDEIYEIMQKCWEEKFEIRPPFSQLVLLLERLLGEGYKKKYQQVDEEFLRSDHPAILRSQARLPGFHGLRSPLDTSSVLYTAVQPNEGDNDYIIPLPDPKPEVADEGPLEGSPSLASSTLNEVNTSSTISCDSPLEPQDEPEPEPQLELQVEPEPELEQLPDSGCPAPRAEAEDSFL

SMILES | IC50 [1] | IC50 [2, 5] | IC50 [3, 6] | IC50 (osteoclast precursors) | IC50 [4, 7] | IC50 ([2]; IC50 (nM) uPDGFRβ, Table 3) | IC50 ([3]; IC50 (nM) uFMS, Table 3) | IC50 ([4]; IC50 (nM) uKIT, Table 3) | IC50 (M-NFS-60 cells)
Cn1cc(-c2cc(Oc3ccc(NC(=O)NC(=O)[C@H]4C[C@](C)(F)C4)nc3)ccn2)cn1 [Example 1, trans-3-fluoro-3-methyl-N-((5-((2-(1-methyl-1H-pyrazol-4-yl)pyridin-4-yl)oxy)pyridin-2-yl)carbamoyl)cyclobutanecarboxamide] | < 10 nM | 10 to 100 nM | < 10 nM | < 10 nM | – | – | – | – | < 10 nM
Cn1cc(-c2cc(Oc3ccc(NC(=O)NC(=O)C4CC(C)(C)C4)nc3)ccn2)cn1 [Example 2, 3,3-dimethyl-N-((5-((2-(1-methyl-1H-pyrazol-4-yl)pyridin-4-yl)oxy)pyridin-2-yl)carbamoyl)cyclobutanecarboxamide] | < 10 nM | 10 to 100 nM | < 10 nM | < 10 nM | < 10 nM | – | – | – | < 10 nM
Cn1cc(-c2cc(Oc3ccc(NC(=O)NC(=O)CCC4(C(F)(F)F)CC4)nc3)ccn2)cn1 [Example 3, N-((5-((2-(1-methyl-1H-pyrazol-4-yl)pyridin-4-yl)oxy)pyridin-2-yl)carbamoyl)-3-(1-(trifluoromethyl)cyclopropyl)propanamide] | < 10 nM | < 10 nM | < 10 nM | < 10 nM | < 10 nM | – | – | – | < 10 nM
Cn1cc(-c2cc(Oc3ccc(NC(=O)NC(=O)CC4CCOCC4)nc3)ccn2)cn1 [Example 4, N-((5-((2-(1-methyl-1H-pyrazol-4-yl)pyridin-4-yl)oxy)pyridin-2-yl)carbamoyl)-2-(tetrahydro-2H-pyran-4-yl)acetamide] | 10 to 100 nM | 100 to 1000 nM | < 10 nM | < 10 nM | 100 to 1000 nM | 168 nM | 8 nM | 165 nM | < 10 nM
Cc1nc(NC(=O)NC(=O)CCC2(C(F)(F)F)CC2)ccc1Oc1ccnc(-c2cnn(C)c2)c1 [Example 11, N-((6-methyl-5-((2-(1-methyl-1H-pyrazol-4-yl)pyridin-4-yl)oxy)pyridin-2-yl)carbamoyl)-3-(1-(trifluoromethyl)cyclopropyl)propanamide] | 10 to 100 nM | 10 to 100 nM | < 10 nM | < 10 nM | < 10 nM | – | – | – | < 10 nM
Cc1nc(NC(=O)NC(=O)C2CCC(F)(F)CC2)ccc1Oc1ccnc(-c2cnn(C)c2)c1 [Example 12, 4,4-difluoro-N-((6-methyl-5-((2-(1-methyl-1H-pyrazol-4-yl)pyridin-4-yl)oxy)pyridin-2-yl)carbamoyl)cyclohexanecarboxamide] | 10 to 100 nM | 100 to 1000 nM | < 10 nM | < 10 nM | 10 to 100 nM | – | – | – | < 10 nM
Cc1nc(NC(=O)NC(=O)C2CC(C)(C)C2)ccc1Oc1ccnc(-c2cnn(C)c2)c1 [Example 13, 3,3-dimethyl-N-((6-methyl-5-((2-(1-methyl-1H-pyrazol-4-yl)pyridin-4-yl)oxy)pyridin-2-yl)carbamoyl)cyclobutanecarboxamide] | < 10 nM | 10 to 100 nM | < 10 nM | < 10 nM | < 10 nM | – | – | – | < 10 nM
Cn1cc(-c2cc(Oc3ccc(NC(=O)NC(=O)C(C)(C)C)nc3)ccn2)cn1 [Example 26, N-((5-((2-(1-methyl-1H-pyrazol-4-yl)pyridin-4-yl)oxy)pyridin-2-yl)carbamoyl)pivalamide] | 10 to 100 nM | 100 to 1000 nM | < 10 nM | < 10 nM | 100 to 1000 nM | – | – | – | < 10 nM
Cn1cc(-c2cc(Oc3ccc(NC(=O)NC(=O)C4CC5(CCC5)C4)nc3)ccn2)cn1 [Example 31, N-((5-((2-(1-methyl-1H-pyrazol-4-yl)pyridin-4-yl)oxy)pyridin-2-yl)carbamoyl)spiro[3.3]heptane-2-carboxamide] | 10 to 100 nM | < 10 nM | < 10 nM | < 10 nM | < 10 nM | – | – | – | < 10 nM
Cc1nc(NC(=O)NC(=O)C2CC3(CCC3)C2)ccc1Oc1ccnc(-c2cnn(C)c2)c1 [Example 32, N-((6-methyl-5-((2-(1-methyl-1H-pyrazol-4-yl)pyridin-4-yl)oxy)pyridin-2-yl)carbamoyl)spiro[3.3]heptane-2-carboxamide] | < 10 nM | 10 to 100 nM | < 10 nM | < 10 nM | < 10 nM | – | – | – | 10 to 100 nM
Cn1cc(-c2cc(Oc3ccc(NC(=O)NC(=O)C4(C(F)(F)F)CC4)nc3)ccn2)cn1 [Example 33, N-((5-((2-(1-methyl-1H-pyrazol-4-yl)pyridin-4-yl)oxy)pyridin-2-yl)carbamoyl)-1-(trifluoromethyl)cyclopropanecarboxamide] | 10 to 100 nM | 10 to 100 nM | < 10 nM | < 10 nM | 100 to 1000 nM | – | – | – | 10 to 100 nM

Further lines, with some results ahead:

IC50 [1] | IC50 [2, 5] | IC50 [3, 6] | IC50 (osteoclast precursors) | IC50 [4, 7] | IC50 ([2]; IC50 (nM) uPDGFRβ, Table 3) | IC50 ([3]; IC50 (nM) uFMS, Table 3) | IC50 ([4]; IC50 (nM) uKIT, Table 3) | SMILES | IC50 (M-NFS-60 cells)
10 to 100 nM | 100 to 1000 nM | < 10 nM | < 10 nM | 100 to 1000 nM | – | – | – | Cc1nc(NC(=O)NC(=O)C2(C(F)(F)F)CC2)ccc1Oc1ccnc(-c2cnn(C)c2)c1 [Example 34, N-((6-methyl-5-((2-(1-methyl-1H-pyrazol-4-yl)pyridin-4-yl)oxy)pyridin-2-yl)carbamoyl)-1-(trifluoromethyl)cyclopropanecarboxamide] | 10 to 100 nM
10 to 100 nM | 10 to 100 nM | < 10 nM | 10 to 100 nM | 100 to 1000 nM | – | – | – | Cn1cc(-c2cc(Oc3ccc(NC(=O)NC(=O)C(C)(C)C(F)(F)F)nc3)ccn2)cn1 [Example 35, 3,3,3-trifluoro-2,2-dimethyl-N-((5-((2-(1-methyl-1H-pyrazol-4-yl)pyridin-4-yl)oxy)pyridin-2-yl)carbamoyl)propanamide] | 10 to 100 nM
10 to 100 nM | – | – | 10 to 100 nM | – | – | – | – | Cc1ccc(-c2cc(Oc3ccc(NC(=O)NC(=O)C(C)(C)C)nc3C)ccn2)cn1 [Example 39, N-((6-methyl-5-((6′-methyl-[2,3′-bipyridin]-4-yl)oxy)pyridin-2-yl)carbamoyl)pivalamide] | –
10 to 100 nM | – | – | 10 to 100 nM | – | – | – | – | Cc1nc(NC(=O)NC(=O)CC(C)(C)C(F)(F)F)ccc1Oc1ccnc(-c2cnn(C)c2)c1 [Example 47, 4,4,4-trifluoro-3,3-dimethyl-N-((6-methyl-5-((2-(1-methyl-1H-pyrazol-4-yl)pyridin-4-yl)oxy)pyridin-2-yl)carbamoyl)butanamide] | –
< 10 nM | – | < 10 nM | 10 to 100 nM | < 10 nM | – | – | – | Cn1cc(-c2cc(Oc3ccc(NC(=O)NC(=O)CC(C)(C)C(F)(F)F)nc3)ccn2)cn1 [Example 48, 4,4,4-trifluoro-3,3-dimethyl-N-((5-((2-(1-methyl-1H-pyrazol-4-yl)pyridin-4-yl)oxy)pyridin-2-yl)carbamoyl)butanamide] | 10 to 100 nM
< 10 nM | > 1000 nM | – | < 10 nM | 100 to 1000 nM | – | – | – | Cn1cc(-c2cc(Oc3ccc(NC(=O)NC(=O)C4(C)CC4)nc3)ccn2)cn1 [Example 52, 1-methyl-N-((5-((2-(1-methyl-1H-pyrazol-4-yl)pyridin-4-yl)oxy)pyridin-2-yl)carbamoyl)cyclopropanecarboxamide] | –
10 to 100 nM | – | – | < 10 nM | – | – | – | – | COC(C)(C)C(=O)NC(=O)Nc1ccc(Oc2ccnc(-c3cnn(C)c3)c2)cn1 [Example 55, 2-methoxy-2-methyl-N-((5-((2-(1-methyl-1H-pyrazol-4-yl)pyridin-4-yl)oxy)pyridin-2-yl)carbamoyl)propanamide] | –
< 10 nM | > 1000 nM | – | 10 to 100 nM | > 1000 nM | 2800 nM | – | 3100 nM | Cc1cc(-c2cc(Oc3ccc(NC(=O)NC(=O)C(C)(C)C)nc3C)ccn2)ccn1 [Example 56, N-((6-methyl-5-((2′-methyl-[2,4′-bipyridin]-4-yl)oxy)pyridin-2-yl)carbamoyl)pivalamide] | –
< 10 nM | > 1000 nM | – | 10 to 100 nM | > 1000 nM | – | – | – | Cc1cc(-c2cc(Oc3ccc(NC(=O)NC(=O)C(C)(C)C)nc3C)ccn2)on1 [Example 76, N-((6-methyl-5-((2-(3-methylisoxazol-5-yl)pyridin-4-yl)oxy)pyridin-2-yl)carbamoyl)pivalamide] | –
< 10 nM | – | – | < 10 nM | – | – | – | – | Cc1cc(-c2cc(Oc3ccc(NC(=O)NC(=O)C(C)C)nc3C)ccn2)ccn1 [Example 79, N-((6-methyl-5-((2′-methyl-[2,4′-bipyridin]-4-yl)oxy)pyridin-2-yl)carbamoyl)isobutyramide] | –
– | 100 to 1000 nM | < 10 nM | 10 to 100 nM | 100 to 1000 nM | – | – | – | COC1(C(=O)NC(=O)Nc2ccc(Oc3ccnc(-c4ccnc(C)c4)c3)cn2)CCCC1 [Example 168, 1-methoxy-N-((5-((2′-methyl-[2,4′-bipyridin]-4-yl)oxy)pyridin-2-yl)carbamoyl)cyclopentanecarboxamide] | 10 to 100 nM
